# Experimental data taken from patent US7741280B2, “Multimeric molecules, the preparation method thereof and use of same for the preparation of medicaments” (Centre National de la Recherche Scientifique, priority 2002, dated 2010).
# Where a SMILES comes first, the peptide text is derived from it. Where no end group is shown, it is not given here. Side-chain parts run from the residue outwards. [ ]: non-standard residue; d: D form. β3hK = NCCCC[C@H](N)CC(=O)O; Ahx = NCCCCCC(=O)O
# Assays:
# [1] = target: T1, CD40-CD40L interaction (Homo sapiens, UniProt P25942); test: Expression of CD95 induced by CD40L on BL41 cells cultured with 3T6-CD40L fibroblasts (flow cytometry); assay type: cell-based; conditions: for % of inhibition of the expression of CD95 induced by CD40L: BL41 + 3T6-CD40L, 48 hours; for effect on the expression of CD95 induced by CD40L (in words): BL41 cells in the presence of 3T6-CD40L cells, no concentration stated
# T1 construct: they receive a signal via the CD40 molecule, which they express in a constitutive manner; endogenous in cells; host or cells: BL41 Burkitt's lymphoma cells (endogenous CD40), co-cultured with 3T6 fibroblasts transfected with CD40L
# Method: Then, the affinity of these ligands for the CD40 molecule is evaluated using a biosensor (BIAcore™). The agonist or antagonist effect of the ligands was tested using two simple biological tests. In the first, the expression of the membranous molecule CD95 by transformed B cells (Burkitt's lymphoma) is studied after activation by the CD40-CD40L interaction (Schattner et al., 1996). In such a model, the CD40L partner is expressed on transfected fibroblasts (3T6-CD40L) (Buelens et al., 1997). The BL41 Burkitt's lymphoma cells are incubated with non-transfected 3T6 fibroblasts (FIGS. 3A and 3C) or with 3T6 fibroblasts transfected by CD40L (FIGS. 3B and 3D). After 48 hours, the expression of CD95 is evaluated by flow cytometry. The expression of CD95 is induced in the presence of CD40L (FIG. 3B). A commercial anti-CD40L antibody inhibits the consequences of the CD40-CD40L interaction (FIG. 3D).
# The antagonist effect is evaluated by measurement of the decrease in the expression of CD95 induced by the CD40L in the presence of the different chemical ligands (see Table I). With the help of these tests, the most interesting ligands are chosen to evaluate their activity in vivo and in vitro in more complex models.
# The lymphoma B cells express the CD95 molecule when they receive a signal via the CD40 molecule, which they express in a constitutive manner. This signal is generally conveyed by the CD40L (CD154) molecule expressed by another cell. The antagonist ligands inhibit the binding of CD40 on CD40L and thus […] the expression of CD95. The agonist ligands copy the CD40L molecule and induce the expression of CD95 even in the absence of the cell expressing CD40L.
# The BL41 Burkitt's lymphoma cells (5.10^5/ml) are cultured in the presence of 3T6 fibroblasts (10^5/ml) transfected (3T6-CD40L) or not transfected with CD40L (3T6), and treated with mitomycin to stop their proliferation. The ligands are added at the start of the culture at the chosen concentration. After culture for 48 hours, expression of the CD95 molecule is measured by flow cytometry. The BL41 cells are distinguished from the fibroblasts using an anti-CD19 antibody (specific marker of the B cells).
# [2] = target: T1, CD40-CD40L interaction; test: as above; assay type: cell-based; conditions: concentration of 50 μM
# [3] = system: BL41 Burkitt's lymphoma cells; test: Apoptosis of BL41 cells (Annexin V-FITC / propidium iodide flow cytometry); assay type: cell-based; conditions: 24 hours culture, FIG. 4B, 50 to 6 μM
# Method: Apoptosis is measured by flow cytometry after labelling with annexin V FITC and propidium iodide. Cells labelled with annexin V alone or with annexin V and propidium iodide are considered apoptotic. The percentage of specific apoptosis is calculated by the following formula: [(% apoptosis with ligand−% apoptosis without ligand)/(100−% apoptosis without ligand)]×100
# (§1) The second test is based on the property of certain B lymphomas to cease proliferation and enter apoptosis during the bridging of their membranous CD40 molecule (Tong et al., 1999). In this test, the BL41 cells are incubated with ligands CD40 and after 24 hours either the inhibition of proliferation of these cells is measured, by studying the incorporation of tritiated thymidine, or the percentage of apoptotic cells is measured with a flow cytometry study (FIGS. 4A and 4B).
# (§2) Certain B lymphomas enter apoptosis when their CD40 molecule is bridged by an anti-CD40 antibody or by CD40L which is soluble independently from the CD95 molecule. This induction of apoptosis is expressed as a decrease in proliferation measured by the incorporation of tritiated thymidine. The agonist ligands of CD40 will induce an increase in apoptosis and as a result a decrease in the incorporation of tritiated thymidine.
# The BL41 Burkitt's lymphoma cells (4.10^5/mL) are cultured in the presence of the different ligands at the chosen concentration. […]
# [4] = target: T2, human CD40 muIg fusion protein (UniProt P01863+P25942); test: Biacore3000 surface plasmon resonance study of the CD40/CD40L interaction and the ligands; assay type: binding; conditions: in the presence of 100 nM of CD40L
# T2 construct: purchased ANCELL Corporation, Bayport, Minn
# Text: The Biacore3000 is a device which allows the interactions between two molecules to be studied, based on the surface plasmon resonance. It allows measurement in real time, and therefore allows the kinetics of interaction (association and disassociation) of an analyte (which is in an injected solution) and of a ligand (immobilised on a microchip supporting the measurement) to be monitored. The kinetic measurements at different concentrations of analyte allow calculation of the affinity constants of the interaction between the ligand and the analytes. The microchip contains four cells for different measurements, which allows direct comparison of a reference cell on which a protein which is not pertinent (protein which has no affinity with the ligand studied), but close to the ligand is immobilised with the cell on which the ligand is immobilised.
# (§3) Rabbit antibodies directed against the constant region of mouse immunoglobulins were immobilized on a microchip. In the reference cell a monoclonal mouse antibody of isotype IgG2a (LG112) at 40 nM is immobilized with a flow of 5 μL/min for 2 minutes; in the cell of the ligand the recombinant CD40 associated with the constant region of the mouse IgG2a heavy chain (human CD40 muIg fusion protein, ANCELL Corporation, Bayport, Minn.) is immobilized under the same conditions.
# On the two cells (reference and ligand), the CD40L (human CD154 muCD8 fusion protein, ANCELL Corporation) at different concentrations or the CD40L at a concentration of 1 μM or of 125 nM, are injected, as analyte, in the presence of different concentrations of ligands. The flow in the presence of the analytes is 10 μL/min for 5 minutes to study the association and, in the absence of analytes, the conditions are the same to study the dissociation.
# In order to regenerate the cells (i.e. remove all the proteins adsorbed in a non-covalent manner), a solution of 10 mM of HCl is injected at 5 μL/min for 1 minute. The cells are then ready for another analysis.
# [5] = system: BL41 Burkitt's lymphoma cells; test: Inhibition of proliferation of BL41 cells (incorporation of tritiated thymidine); assay type: cell-based; conditions: 24 hours culture, FIG. 4A, 50 μM to 50 nM
# Method: Tritiated thymidine was added at a concentration of 1 μci/well (0.8.10^5 cells/well) for the last 8 hours of culture and the incorporation of tritiated thymidine measured using a gaseous scintillation β counter.
# as §1, §2
# The BL41 Burkitt's lymphoma cells (4.10^5/mL) are cultured in the presence of the different ligands at the chosen concentration. After 24 hours, the cells are either incubated for 8 hours with tritiated thymidine (1 μci/well) to measure the proliferation or are labelled with Annexin V-FITC and propidium iodide to evaluate the percentage of apoptotic cells with flow cytometry.
# [6] = target: T3, human CD40 muIg fusion protein (recombinant CD40 associated with the constant region of the mouse IgG2a heavy … (human; mouse, UniProt P25942 21-193, limits assumed); test: SPR (Biacore 3000), kinetic analysis with 2.5 µM L3 in the presence of 125 nM CD40L over captured CD40 muIg
# T3 construct: Bought reagent; Captured on the Biacore chip through rabbit anti-mouse immunoglobulin antibodies; not shown: constant region of the mouse IgG2a heavy chain
# Method: as §3, with “µL/min” for “μL/min”
# (§4) The flow in the presence of the analytes is 10 µL/min for 5 minutes to study the association and, in the absence of analytes, the conditions are the same to study the dissociation.
# [7] = target: T3, human CD40 muIg fusion protein …; test: SPR (Biacore 3000), inhibition of the binding of 100 nM CD40L to captured CD40 muIg
# Method: as §3, with “µL/min” for “μL/min”
# as §4
# (§5) The association of L4, L7 (and of its derivatives), L8, L9 L11 and L12 was studied in the presence of 100 nM of CD40L. Only the L4 and L9 molecules bind to CD40 and displace CD40L. The kinetic analysis in the presence of 40 and 80 nM of L4 produced an equilibrium constant for L4 of 180 nM.
# [8] = target: T3, human CD40 muIg fusion protein …; test: SPR (Biacore 3000), kinetic analysis with 40 and 80 nM L4 in the presence of 100 nM CD40L over captured CD40 muIg
# Method: as §3, with “µL/min” for “μL/min”
# as §4, §5
# T3 sequence (P25942 21-193 limits assumed): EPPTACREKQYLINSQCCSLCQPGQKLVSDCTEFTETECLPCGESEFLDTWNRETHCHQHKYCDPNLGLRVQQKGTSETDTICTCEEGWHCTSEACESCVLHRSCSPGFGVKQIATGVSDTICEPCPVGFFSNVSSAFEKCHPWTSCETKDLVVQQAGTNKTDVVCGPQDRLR
# T1 sequence (P25942 21-277): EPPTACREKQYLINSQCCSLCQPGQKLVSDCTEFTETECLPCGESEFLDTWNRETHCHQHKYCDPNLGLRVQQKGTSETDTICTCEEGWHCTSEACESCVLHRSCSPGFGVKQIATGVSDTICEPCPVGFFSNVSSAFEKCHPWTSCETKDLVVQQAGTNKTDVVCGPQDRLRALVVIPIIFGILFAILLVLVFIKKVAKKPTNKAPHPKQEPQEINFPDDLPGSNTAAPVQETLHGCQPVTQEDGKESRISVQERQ
# T2 sequence (P25942+P01863 fused): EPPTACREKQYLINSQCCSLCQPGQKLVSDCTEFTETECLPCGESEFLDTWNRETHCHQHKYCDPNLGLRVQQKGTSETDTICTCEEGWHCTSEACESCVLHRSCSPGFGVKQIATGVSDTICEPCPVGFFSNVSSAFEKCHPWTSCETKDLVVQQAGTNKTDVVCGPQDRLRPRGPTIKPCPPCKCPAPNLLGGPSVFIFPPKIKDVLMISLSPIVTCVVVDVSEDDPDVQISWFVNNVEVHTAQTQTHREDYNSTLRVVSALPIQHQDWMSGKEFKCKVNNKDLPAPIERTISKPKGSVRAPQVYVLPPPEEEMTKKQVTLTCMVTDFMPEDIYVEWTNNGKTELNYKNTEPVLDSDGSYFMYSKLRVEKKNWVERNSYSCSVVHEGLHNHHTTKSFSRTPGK
molecule,measurement,setting,value
C[C@H]1NC(=O)[C@H](CCCCNC(=O)CCCCCNC(=O)[C@H](Cc2ccc(O)cc2)NC(=O)[C@H](Cc2ccc(O)cc2)NC(=O)CNC(=O)[C@@H](N)CCCCN)NC(=O)[C@@H](C)NC(=O)[C@H](CCCCNC(=O)CCCCCNC(=O)[C@H](Cc2ccc(O)cc2)NC(=O)[C@H](Cc2ccc(O)cc2)NC(=O)CNC(=O)[C@@H](N)CCCCN)NC(=O)[C@@H](C)NC(=O)[C@H](CCCCNC(=O)CCCCCNC(=O)[C@H](Cc2ccc(O)cc2)NC(=O)[C@H](Cc2ccc(O)cc2)NC(=O)CNC(=O)[C@@H](N)CCCCN)NC1=O [L4] (cyclo(K([Ahx-Tyr-Tyr-Gly-Lys])[dA]K([Ahx-Tyr-Tyr-Gly-Lys])[dA]K([Ahx-Tyr-Tyr-Gly-Lys])[dA])),% of inhibition of the expression of CD95 induced by CD40L,[1]; ligand 0.5 μM,19%
same,% of inhibition of the expression of CD95 induced by CD40L,[1]; ligand 5 μM,36%
same,% of inhibition of the expression of CD95 induced by CD40L,[1]; ligand 10 μM,40%
same,% of inhibition of the expression of CD95 induced by CD40L,[1]; ligand 50 μM,22%
same,cell mortality,[2],substantial cell mortality
L11: constituted by the single peptide sequence (KGYY-{Ahx-OH}),apoptosis of BL41 cells (in words),[3],no effect
same,binding to CD40 and displacement of CD40L (in words),[4],Only the L4 and L9 molecules bind to CD40
"L4a: same core molecule as L4 but only 2 examples of the peptide sequence (chain [dA]K[dA]K[dA]K; peptide H-KGYY[Ahx]; also: two copies of chain 2 linked via Ahx to two Lys ε-amines of chain 1, which Lys not given here, head-to-tail to a chain's N/C-terminus)",effect on the expression of CD95 induced by CD40L (in words),[1],only very weakly inhibits
same,% of inhibition of the expression of CD95 induced by CD40L,[1]; ligand 0.5 μM,0%
same,% of inhibition of the expression of CD95 induced by CD40L,[1]; ligand 5 μM,8%
same,% of inhibition of the expression of CD95 induced by CD40L,[1]; ligand 50 μM,13%
same,apoptosis of BL41 cells (in words),[3],very weak apoptosis
NCCCC[C@H](N)C(=O)NCC(=O)N[C@@H](Cc1ccc(O)cc1)C(=O)N[C@@H](Cc1ccc(O)cc1)C(=O)NCCCCCC(=O)NCCCOCC(COCCCNC(=O)CCCCCNC(=O)[C@H](Cc1ccc(O)cc1)NC(=O)[C@H](Cc1ccc(O)cc1)NC(=O)CNC(=O)[C@@H](N)CCCCN)(COCCCNC(=O)CCCCCNC(=O)[C@H](Cc1ccc(O)cc1)NC(=O)[C@H](Cc1ccc(O)cc1)NC(=O)CNC(=O)[C@@H](N)CCCCN)NC(=O)CCC(N)=O [L7],effect on the expression of CD95 induced by CD40L (in words),[1],no effect
same,% of inhibition of the expression of CD95 induced by CD40L,[1]; ligand 0.5 μM,0%
same,% of inhibition of the expression of CD95 induced by CD40L,[1]; ligand 5 μM,0%
same,% of inhibition of the expression of CD95 induced by CD40L,[1]; ligand 50 μM,0%
same,inhibition of the proliferation of BL41 cells (in words),[5],only have a small or no effect
same,binding to CD40 and displacement of CD40L (in words),[4],Only the L4 and L9 molecules bind to CD40
"Compound L3 (ligand L3) (also: core Lys joined through epsilon-amines (isopeptide bonds), KGYY arms on free amines of core Lys, Tyr C-terminus amide-linked directly to core amine, no spacer, also called linear ligand) KKKKA peptide: KGYY",Kd,[6],10000 nM
soluble CD40L: soluble CD40L molecule used as positive control on BL41 cells (protein) MQKGDQNPQIAAHVISEASSKTTSVLQWAEKGYYTMSNNLVTLENGKQLTVKRQGLYYIYAQVTFCSNREASSQAPFIASLCLKSPGRFERILLRAANTHSSAKPCGQQSIHLGGVFELQPGASVFVNVTDPSQVSHGTGFTSFGLLKL,inhibition of the proliferation of BL41 cells (in words),[5],greatly inhibits
"Compound L9 (ligand L9): cyclic core structure different from that of L4 with 3 examples of the same peptide sequence (also: three H-KGYY-Ahx- arms, one on each side-chain amine of the core, head-to-tail to a chain's N/C-terminus) [β3hK]-[β3hK]-[β3hK] peptide: H-KGYY[Ahx]",IC50,[7],< 50 nM
"Compound L4 (ligand L4): cyclic core structure with 3 examples of the peptide sequence mimicking the CD40-CD40L interface (also: three H-KGYY-Ahx- arms, one on the epsilon-amine of each core Lys, head-to-tail to a chain's N/C-terminus) [dA]K[dA]K[dA]K peptide: H-KGYY[Ahx]",IC50,[7],80 nM
same,Kd,[8],180 nM
